Eleven molecules from ChEMBL document CHEMBL1201862, “PubChem BioAssay data set” (2004) can be followed below.

Structures are written as SMILES.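 Briefly, cells in 96-well plates were exposed to five compound concentrations for 48 h, and endpoints were estimated by linear interpolation. Abbreviation: GI50, concentration required for 50% inhibition of growth.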 Activity calls are given as the source filed them. No stated cut-off is given here; in the data, active = GI50 up to about 1.1 µM and inactive = higher.

Common to all, as to assay: inhibition of tumour cell growth, NCI panel, 48 h
In assay [1] the test system is SF-539.
Assay [2] has as its system HCT-15.
Assay [3] has as its system IGROV-1.
In assay [4] the test system is ACHN.
In assay [5] the test system is CCRF-CEM.
For assay [6], the system named is SK-MEL-5.
Assay [7] has as its system HCT-116.
In assay [8] the test system is OVCAR-3.
Assay [9] relates to SK-OV-3.
Assay [10] deals with SW-620.
The subject of assay [11] is MDA-MB-435.
Assay [12] concerns NCI-H460.
Assay [13] concerns LOX IMVI.
Assay [14] relates to SK-MEL-28.
In assay [15] the test system is HOP-92.
The subject of assay [16] is MOLT-4.
Assay [17] deals with NCI-H522.
Assay [18] concerns A498.
Assay [19] has as its system U-251.
Assay [20] relates to SF-268.

As for `CCCCCCc1ccc(CCCCCCCC(=O)O)o1`, the GI50 in [1] was > 100 µM (inactive); in assay [2] it was 61.5 µM; in assay [3], > 100 µM (inactive); in assay [4] it was 62.4 µM (inactive); in assay [5] it was 48.5 µM (inactive); in assay [6] it was > 100 µM (inactive). Further, the GI50 in assay [7] is 68.5 µM (inactive); in [8], 34.2 µM (inactive); in assay [9], > 100 µM (inactive); in assay [10], > 100 µM (inactive); in [11], > 100 µM (inactive); in assay [12], > 100 µM (inactive). For the same molecule, the GI50 in assay [13] was > 100 µM (inactive); in assay [14] it was > 100 µM (inactive); in assay [15], > 100 µM (inactive); in assay [16], 16.4 µM (inactive).

As for `COc1cc2c(cc1OC(=O)CC(C)O)C1C(OC2=O)C(OC(C)=O)C=C2CCN(C)[C@H]21` (some centres undefined), the GI50 in [1] was 21.4 µM (inactive); in [3] it was 21.5 µM (inactive); in assay [4] it was 18 µM (inactive); in [5], > 100 µM (inactive); in assay [17], 97.7 µM (inactive); in [6], 38.1 µM (inactive). Further, the GI50 in assay [7] was 58.7 µM (inactive); in assay [18], 17.2 µM (inactive); in assay [8], 38.4 µM (inactive); in assay [9], 15.9 µM (inactive); in assay [10], > 100 µM (inactive); in assay [19] it was 24.2 µM (inactive). Moreover, the GI50 is 46.3 µM (inactive) in assay [20]; > 100 µM (inactive) in [12]; 40.4 µM (inactive) in assay [13]; 29 µM (inactive) in assay [14]; 17.3 µM (inactive) in assay [15]; 47.2 µM (inactive) in assay [16].

Consider `Cc1nn(-c2ccccc2)c(C)c1/C=N/NC(=O)c1sc(=S)n(-c2ccc(Cl)cc2)c1N`, for which the GI50 in assay [1] is 3.64 µM (inactive); in [2], 6.56 µM; in assay [3], 1.49 µM (inactive); in assay [4], 4.18 µM (inactive); in [5], 6.01 µM (inactive); in assay [6] it was 4.03 µM (inactive). Further, the GI50 in assay [7] was 7.74 µM (inactive); in [18], 6.18 µM (inactive); in [8] it was 60.3 µM (inactive); in assay [9], 3.87 µM (inactive); in [10], > 100 µM (inactive); in assay [11], 9.64 µM (inactive). Moreover, the GI50 in [19] was 6 µM (inactive); in assay [20] it was 9.57 µM (inactive); in assay [12], 4.83 µM (inactive); in assay [13] it was 3.27 µM (inactive); in [14], 5.4 µM (inactive); in [16], 8.2 µM (inactive).

For the molecule `C[N+](C)(C)CC(CC(=O)[O-])C1CC1` (centres undefined), the GI50 in [1] is > 100 µM (inactive); in [2], > 100 µM; in assay [3], > 100 µM (inactive); in assay [4], > 100 µM (inactive); in assay [5], > 100 µM (inactive); in [17] it was > 100 µM (inactive). Also, the GI50 in [6], in assay [18], in assay [8], in assay [9], in assay [10] and in assay [19] was > 100 µM (inactive) throughout. The GI50 in assay [20], in assay [12], in [13], in assay [14], in [15] and in [16] was > 100 µM (inactive) in each case.

For the molecule `COc1cc(/C=C\c2ccc(Cl)cc2)cc(OC)c1OC`, the GI50 in assay [1] was 0.147 µM (active); in assay [2], 0.196 µM; in assay [3] it was 1.08 µM (active); in assay [4] it was 1.38 µM (inactive); in assay [5] it was 0.0964 µM (active); in assay [17], 0.111 µM (active). Besides, the GI50 in [6] was 0.025 µM (active); in [7], 0.0652 µM (active); in [18] it was 0.171 µM (active); in assay [8], 0.102 µM (active); in assay [9] it was 0.228 µM (active); in [10], 0.0552 µM (active). Further, the GI50 is 0.231 µM (active) in assay [19]; 0.843 µM (active) in [20]; 0.221 µM (active) in [12]; 0.175 µM (active) in [13]; 0.454 µM (active) in [14]; 0.326 µM (active) in [15]. For the same molecule, in assay [16], the GI50 is 0.0762 µM (active).

With `CN(C)/C=[N+]1/[C@@H](Cc2ccccc2)C(=O)O[B-]1(F)c1ccccc1` (some centres undefined), the GI50 was > 100 µM in assay [2]; > 100 µM (inactive) in assay [3]; > 100 µM (inactive) in assay [4]; > 100 µM (inactive) in assay [5]; > 100 µM (inactive) in assay [6]; > 100 µM (inactive) in assay [7]. Further, the GI50 in assay [18], in assay [8], in assay [9], in [10], in assay [11] and in assay [19] was > 100 µM (inactive) each time. Besides, the GI50 in assay [20], in [12], in assay [13], in assay [14], in [15] and in assay [16] was > 100 µM (inactive) each time.

`CCCCCCCCCCCCCCCCCCCCCC(=O)Nc1ccn(C2OC(CO)C(O)C2O)c(=O)n1` (centres undefined): the GI50 in assay [1] is > 100 µM (inactive); in assay [2] it was > 96.2 µM; in assay [3] it was > 68.9 µM (inactive); in assay [4], 5.2 µM (inactive); in [5] it was 0.191 µM (active); in [17], > 100 µM (inactive). The GI50 in assay [6] was 29 µM (inactive); in [7] it was 6.89 µM (inactive); in assay [18], 34.2 µM (inactive); in assay [8], > 100 µM (inactive); in assay [9], > 54.6 µM (inactive); in assay [10], > 57.4 µM (inactive). Also, the GI50 was > 92.9 µM (inactive) in [19]; 18.4 µM (inactive) in assay [20]; 2.32 µM (inactive) in assay [12]; 9.89 µM (inactive) in assay [13]; > 100 µM (inactive) in [14]; > 40.8 µM (inactive) in assay [15]. For the same molecule, the GI50 in assay [16] is 0.273 µM (active).

Take `CC(C)NC(=O)OCCN=C1c2ccccc2CCc2ccccc21`: the GI50 in assay [1] is 22.3 µM (inactive); in assay [2], 24.7 µM; in [3] it was 35.1 µM (inactive); in assay [4], 27.2 µM (inactive); in [5], 19.6 µM (inactive); in assay [6] it was 13.9 µM (inactive). Further, the GI50 in assay [7] was 21.9 µM (inactive); in [8], 25 µM (inactive); in assay [9], 24.8 µM (inactive); in [10], 28.3 µM (inactive); in assay [11] it was 30.6 µM (inactive); in assay [19], 23.8 µM (inactive). For the same molecule, the GI50 in [20] was 26.2 µM (inactive); in assay [12], 28.2 µM (inactive); in assay [13] it was 26.6 µM (inactive); in assay [14], 19.7 µM (inactive); in assay [15], 24.5 µM (inactive); in assay [16], 14.8 µM (inactive).

`CC(SC(=S)N(C)C)C(=O)Nc1nnc(-c2ccc(Cl)cc2)o1` (centres undefined): the GI50 is 59.7 µM (inactive) in assay [1]; 17.7 µM in [2]; 30.2 µM (inactive) in assay [3]; 36 µM (inactive) in [4]; 31.6 µM (inactive) in assay [6]; 28.8 µM (inactive) in [7]. In addition, the GI50 was 42.4 µM (inactive) in assay [18]; 19.6 µM (inactive) in assay [8]; > 100 µM (inactive) in assay [9]; 34.7 µM (inactive) in [10]; 35.2 µM (inactive) in assay [11]; 31 µM (inactive) in assay [19]. Moreover, the GI50 in [20] was 29 µM (inactive); in assay [12], 35.8 µM (inactive); in assay [13] it was 16.9 µM (inactive); in assay [14], 53 µM (inactive); in [15], > 100 µM (inactive); in assay [16], 3.24 µM (inactive).

Regarding `O=c1oc2c(O)c(O)cc3c(=O)oc4c(O)c(O)cc1c4c23` [ELLAGIC ACID], the GI50 in [1] was > 10 µM (inactive); in assay [2], 79.8 µM; in assay [3], 45.4 µM (inactive); in assay [4], 45.8 µM (inactive); in [5], > 10 µM (inactive); in assay [17], 24.1 µM (inactive). In addition, the GI50 is > 10 µM (inactive) in assay [6]; 92 µM (inactive) in assay [7]; 21.4 µM (inactive) in assay [18]; 29.9 µM (inactive) in [8]; 73.1 µM (inactive) in assay [9]; > 10 µM (inactive) in assay [10]. In addition, the GI50 in assay [19] is 27.9 µM (inactive); in [20], 56.5 µM (inactive); in assay [12], 53.5 µM (inactive); in assay [13], 93.5 µM (inactive); in [14], > 10 µM (inactive); in [15] it was 31 µM (inactive). Besides, the GI50 in [16] was > 10 µM (inactive).

As for `COC1=C(C)C(=O)C2C(C1=O)C(c1ccc(OC)c(OC)c1)[C@H]2C` (some centres undefined), the GI50 in assay [1] was > 100 µM (inactive); in assay [2] it was > 100 µM; in [3], > 100 µM (inactive); in assay [4] it was > 100 µM (inactive); in assay [5] it was > 100 µM (inactive); in [17], > 100 µM (inactive). Further, the GI50 in assay [6], in assay [18], in [8], in assay [9], in [10] and in assay [19] was > 100 µM (inactive) in each case. The GI50 in assay [20], in assay [12], in assay [13], in [14], in assay [15] and in assay [16] was > 100 µM (inactive) throughout.
